Assay results from patent publication US9796702B2, “Dihydroquinoline pyrazolyl compounds” (Hoffmann-La Roche Inc., priority 2015, dated 2017).

Assays:
CYP11B2 [1] = molecular target: T1, CYP11B2 (Homo sapiens (Human), UniProt P19099); test: G-402 cellular enzyme assay, human CYP11B2 (aldosterone release); assay type: cell-based; settings: G-402 cells expressing human CYP11B2; 1 μM Deoxycorticosterone
Text: (§1) Herein we identified the use of the G-402 cell line as a host cell to ectopically express (transiently or stably) enzymes of the CYP11 family. Specifically we developed stable G-402 cells expressing ectopically human CYP11B1, human CYP11B2, human CYP11A1, cynmolgus CYP11B1 or cynomolgus CYP11B2 enzyme activity. Importantly the identified cell line G-402 expresses co-factors (adrenodoxin and adrenodoxin reductase) important for the activity of the CYP11 family and no relevant enzyme activity of the CYP11 family (in comparison to H295R cells) was detected in these cells. Therefore the G-402 cell line is uniquely suited as a host cell for the ectopic expression of enzymes from the CYP11 family.
(§2) G-402 cells can be obtained from ATCC (CRL-1440) and were originally derived from a renal leiomyoblastoma.
(§3) The expression plasmids contains the ORF for either human/cyno CYP11B1 or CYP11B2 under the control of a suitable promoter (CMV-promoter) and a suitable resistance marker (neomycin). Using standard techniques the expression plasmid is transfected into G-402 cells and these cells are then selected for expressing the given resistance markers. Individual cell-clones are then selected and assessed for displaying the desired enzymatic activity using 11-Deoxycorticosterone (Cyp11B2) or 11-Deoxycortisol (Cyp11B1) as a substrate.
(§4) G-402 cells expressing CYP11 constructs were established as described above and maintained in McCoy's 5a Medium Modified, ATCC Catalog No. 30-2007 containing 10% FCS and 400 μg/ml G418 (Geneticin) at 37° C. under an atmosphere of 5% CO2/95% air. Cellular enzyme assays were performed in DMEM/F12 medium containing 2.5% charcoal treated FCS and appropriate concentration of substrate (0.3-10 uM 11-Deoxycorticosterone, 11-Deoxycortisol or Corticosterone). For assaying enzymatic activity, cells were plated onto 96 well plates and incubated for 16 h. An aliquot of the supernatant is then transferred and analyzed for the concentration of the expected product (Aldosterone for CYP11B2; Cortisol for CYP11B1). The concentrations of these steroids can be determined using HTRF assays from CisBio analyzing either Aldosterone or Cortisol.
(§5) Inhibition of the release of produced steroids can be used as a measure of the respective enzyme inhibition by test compounds added during the cellular enzyme assay. The dose dependent inhibition of enzymatic activity by a compound is calculated by means of plotting added inhibitor concentrations (x-axes) vs. measured steroid/product level (y-axes). The inhibition is then calculated by fitting the following 4-parameter sigmoidal function (Morgan-Mercer-Flodin (MMF) model) to the raw data points using the least squares method:
(§6) [formula] wherein, A is the maximum y value, B is the EC50 factor determined using XLFit, C is the minimum y value and D is the slope value.
(§7) EC50 values for compounds claimed herein were tested with the G402-based assay system described. Cyp11B2 enzyme activity was tested in presence of 1 μM Deoxycorticosterone and variable amounts of inhibitors; Cyp11B1 enzyme activity was tested in presence of 1 μM Deoxycortisol and variable amounts of inhibitors.

human CYP11B1 = human CYP11B1 (Homo sapiens (Human), UniProt P15538); test: G-402 cellular enzyme assay, human CYP11B1 (cortisol release); assay type: cell-based; settings: G-402 cells expressing human CYP11B1; 1 μM Deoxycortisol
human CYP11B1, sequence (P15538 25-503): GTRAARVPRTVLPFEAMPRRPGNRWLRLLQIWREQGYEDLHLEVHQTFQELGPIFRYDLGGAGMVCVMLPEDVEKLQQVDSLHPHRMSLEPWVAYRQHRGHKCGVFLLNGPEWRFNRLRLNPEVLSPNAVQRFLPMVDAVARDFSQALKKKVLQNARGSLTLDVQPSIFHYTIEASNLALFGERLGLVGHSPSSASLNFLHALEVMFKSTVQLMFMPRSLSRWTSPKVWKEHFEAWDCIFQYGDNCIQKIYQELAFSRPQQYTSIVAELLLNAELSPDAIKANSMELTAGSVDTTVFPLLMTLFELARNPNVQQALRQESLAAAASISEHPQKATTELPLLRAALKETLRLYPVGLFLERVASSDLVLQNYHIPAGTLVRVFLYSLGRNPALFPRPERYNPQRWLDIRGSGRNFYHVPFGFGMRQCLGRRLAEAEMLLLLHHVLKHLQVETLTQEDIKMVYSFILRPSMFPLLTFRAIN
Text: as §1, §2, §3, §4, §5, §6, §7

[2] = cited from earlier work; for plasma aldosterone: FAD286: 4 weeks of treatment, spironolactone: 4 and 8 weeks of treatment; for cardiac and aortic medial hypertrophy / renal effects (albuminuria, azotemia, renovascular hypertrophy, glomerular injury, PAI-1 and osteopontin mRNA, tubulointerstitial fibrosis): angiotensin II and high salt treatment, rat; for angiotensin II and salt-stimulated PAI-1 mRNA expression: aorta and heart
CYP11B2 [3] = molecular target: T1, CYP11B2; settings: patients with primary aldosteronism, cited from earlier work
CYP11B2 [4] = settings: patients with primary aldosteronism; cited from earlier work
[5] = rats with experimental heart failure; cited from earlier work

T1 sequence (P19099 25-503): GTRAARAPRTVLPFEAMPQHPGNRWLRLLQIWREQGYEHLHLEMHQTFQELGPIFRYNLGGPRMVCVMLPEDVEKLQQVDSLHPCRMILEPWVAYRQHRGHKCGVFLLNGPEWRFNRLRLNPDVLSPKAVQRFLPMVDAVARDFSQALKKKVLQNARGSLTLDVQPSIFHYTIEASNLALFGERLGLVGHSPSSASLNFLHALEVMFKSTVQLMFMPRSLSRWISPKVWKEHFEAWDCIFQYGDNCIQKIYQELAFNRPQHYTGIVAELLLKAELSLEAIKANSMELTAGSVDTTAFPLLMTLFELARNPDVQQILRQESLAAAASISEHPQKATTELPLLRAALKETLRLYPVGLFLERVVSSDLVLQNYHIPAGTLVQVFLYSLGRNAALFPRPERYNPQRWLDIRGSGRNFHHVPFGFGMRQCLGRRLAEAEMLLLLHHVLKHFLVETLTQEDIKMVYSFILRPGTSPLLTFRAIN

CCS(=O)(=O)N1CCC(Cc2c[nH]nc2-c2ccc3c(c2)CCC(=O)N3C)CC1 [Example 18, 6-[4-[(1-Ethylsulfonyl-4-piperidyl)methyl]-1H-pyrazol-3-yl]-1-methyl-3,4-dihydroquinolin-2-one]
EC50 (CYP11B2 [1]): 0.0052 nM | EC50 (human CYP11B1): 0.216 nM

CC(=O)N1CC2(CC(Cc3c[nH]nc3-c3ccc4c(c3Cl)CCC(=O)N4C)C2)C1 [Example 40, 6-[4-[(2-Acetyl-2-azaspiro[3.3]heptan-6-yl)methyl]-1H-pyrazol-3-yl]-5-chloro-1-methyl-3,4-dihydroquinolin-2-one]
EC50 (CYP11B2 [1]): 0.0495 nM | EC50 (human CYP11B1): 2.47 nM

CN1C(=O)CCc2c1ccc(-c1[nH]ncc1CC1CCN(C(=O)c3ccncc3Cl)CC1)c2Cl [Example 30, 5-Chloro-6-[4-[[1-(3-chloropyridine-4-carbonyl)-4-piperidyl]methyl]-1H-pyrazol-3-yl]-1-methyl-3,4-dihydroquinolin-2-one]
EC50 (CYP11B2 [1]): 0.0192 nM | EC50 (human CYP11B1): 2.47 nM

CN1C(=O)CCc2c1ccc(-c1n[nH]cc1CC1CCN(C(=O)c3cnn(C)c3)CC1)c2F [Example 20, 5-Fluoro-1-methyl-6-[4-[[1-(1-methylpyrazole-4-carbonyl)piperidin-4-yl]methyl]-1H-pyrazol-3-yl]-3,4-dihydroquinolin-2-one]
EC50 (human CYP11B1): 0.723 nM

CN1C(=O)CCc2c1ccc(-c1[nH]ncc1CC1CCN(C(=O)c3ncccc3Cl)CC1)c2Cl [Example 28, 5-Chloro-6-[4-[[1-(3-chloropyridine-2-carbonyl)-4-piperidyl]methyl]-1H-pyrazol-3-yl]-1-methyl-3,4-dihydroquinolin-2-one]
EC50 (CYP11B2 [1]): 0.0276 nM | EC50 (human CYP11B1): 2.45 nM

CCS(=O)(=O)N1CCC(Cc2cn[nH]c2-c2ccc3c(c2F)CCC(=O)N3C)CC1 [Example 22, 6-[4-[(1-Ethylsulfonylpiperidin-4-yl)methyl]-1H-pyrazol-3-yl]-5-fluoro-1-methyl-3,4-dihydroquinolin-2-one]
EC50 (human CYP11B1): 0.133 nM

CC(=O)N1CCC(Cc2c[nH]nc2-c2cc3c(cc2F)N(C)C(=O)CC3)CC1 [Example 19, 6-[4-[(1-Acetylpiperidin-4-yl)methyl]-1H-pyrazol-3-yl]-7-fluoro-1-methyl-3,4-dihydroquinolin-2-one]
EC50 (CYP11B2 [1]): 0.0171 nM | EC50 (human CYP11B1): 0.416 nM

CC(=O)N1CCC(Cc2c[nH]nc2-c2ccc3c(c2F)CCC(=O)N3C)CC1 [Example 21, 6-[4-[(1-Acetyl-4-piperidyl)methyl]-1H-pyrazol-3-yl]-5-fluoro-1-methyl-3,4-dihydroquinolin-2-one]
EC50 (CYP11B2 [1]): 0.012 nM | EC50 (human CYP11B1): 0.447 nM

CC(=O)S[C@@H]1CC2=CC(=O)CC[C@]2(C)[C@H]2CC[C@@]3(C)[C@@H](CC[C@@]34CCC(=O)O4)[C@H]12 [spironolactone]
plasma aldosterone [2]: increased | cardiac and aortic medial hypertrophy [2]: attenuated | renal effects (albuminuria, azotemia, renovascular hypertrophy, glomerular injury, PAI-1 and osteopontin mRNA, tubulointerstitial fibrosis) [2]: prevented these renal effects | angiotensin II and salt-stimulated PAI-1 mRNA expression [2]: enhanced

CCS(=O)(=O)N1CC2(CC(Cc3c[nH]nc3-c3ccc4c(c3Cl)CCC(=O)N4C)C2)C1 [Example 39, 5-Chloro-6-[4-[(2-ethylsulfonyl-2-azaspiro[3.3]heptan-6-yl)methyl]-1H-pyrazol-3-yl]-1-methyl-3,4-dihydroquinolin-2-one]
EC50 (CYP11B2 [1]): 0.0059 nM | EC50 (human CYP11B1): 0.215 nM

CC(=O)N1CCC(Cc2c[nH]nc2-c2ccc3c(c2)CCC(=O)N3C)CC1 [Example 16, 6-[4-[(1-Acetyl-4-piperidyl)methyl]-1H-pyrazol-3-yl]-1-methyl-3,4-dihydroquinolin-2-one]
EC50 (CYP11B2 [1]): 0.0283 nM | EC50 (human CYP11B1): 0.266 nM

CN1C(=O)CCc2c1ccc(-c1n[nH]cc1CC1CC3(C1)CN(C(=O)c1cnn(C)c1)C3)c2Cl [Example 41, 5-Chloro-1-methyl-6-[4-[[2-(1-methylpyrazole-4-carbonyl)-2-azaspiro[3.3]heptan-6-yl]methyl]-1H-pyrazol-3-yl]-3,4-dihydroquinolin-2-one]
EC50 (CYP11B2 [1]): 0.0377 nM | EC50 (human CYP11B1): 7.29 nM

CN1C(=O)CCc2c1ccc(-c1[nH]ncc1CC1CCN(C(=O)c3ccnn3C)CC1)c2Cl [Example 29, 5-Chloro-1-methyl-6-[4-[[1-(2-methylpyrazole-3-carbonyl)-4-piperidyl]methyl]-1H-pyrazol-3-yl]-3,4-dihydroquinolin-2-one]
EC50 (CYP11B2 [1]): 0.0164 nM | EC50 (human CYP11B1): 3.31 nM

CN1C(=O)CCc2cc(-c3[nH]ncc3CC3CCN(C(=O)c4cncn4C)CC3)ccc21 [Example 31, 1-Methyl-6-[4-[[1-(3-methylimidazole-4-carbonyl)-4-piperidyl]methyl]-1H-pyrazol-3-yl]-3,4-dihydroquinolin-2-one]
EC50 (CYP11B2 [1]): 0.007 nM | EC50 (human CYP11B1): 1.12 nM

CN1C(=O)CCc2cc(-c3[nH]ncc3CC3CCN(C(=O)c4ncccc4Cl)CC3)ccc21 [Example 34, 6-[4-[[1-(3-Chloropyridine-2-carbonyl)-4-piperidyl]methyl]-1H-pyrazol-3-yl]-1-methyl-3,4-dihydroquinolin-2-one]
EC50 (CYP11B2 [1]): 0.0145 nM | EC50 (human CYP11B1): 0.547 nM

CN1C(=O)CCc2cc(-c3n[nH]cc3CC3CCN(C(=O)c4cnn(C)c4)CC3)ccc21 [Example 17, 1-Methyl-6-[4-[[1-(1-methylpyrazole-4-carbonyl)-4-piperidyl]methyl]-1H-pyrazol-3-yl]-3,4-dihydroquinolin-2-one]
EC50 (human CYP11B1): 1.2 nM

N#Cc1ccc([C@H]2CCc3cncn32)c(F)c1 [LCI699]
circulating aldosterone levels (CYP11B2 [3]; oral): significantly lower | blood pressure (CYP11B2 [3]): mildly decreased | hypokalemia (CYP11B2 [3]): corrected | selectivity (effects on the glucocorticoid axis, cortisol synthesis) (CYP11B2 [4]): poor selectivity

CN1C(=O)CCc2cc(-c3[nH]ncc3CC3CCN(C(=O)c4nccn4C)CC3)ccc21 [Example 32, 1-Methyl-6-[4-[[1-(1-methylimidazole-2-carbonyl)-4-piperidyl]methyl]-1H-pyrazol-3-yl]-3,4-dihydroquinolin-2-one]
EC50 (CYP11B2 [1]): 0.0294 nM | EC50 (human CYP11B1): 0.351 nM

N#Cc1ccc(C2CCCc3cncn32)cc1 (stereo not shown) [FAD286]
plasma aldosterone [2]: reduced | cardiac and aortic medial hypertrophy [2]: attenuated | renal effects (albuminuria, azotemia, renovascular hypertrophy, glomerular injury, PAI-1 and osteopontin mRNA, tubulointerstitial fibrosis) [2]: prevented these renal effects | angiotensin II and salt-stimulated PAI-1 mRNA expression [2]: not | blood pressure and cardiovascular function and structure [5]: improved | kidney function and morphology [5]: improve
